# Test results published in US9555029B2 (HIKMA PHARMACEUTICALS, priority 2013, dated 2017).
# Read-outs that look alike come from different tables or passages of the source.
# Assays:
# [1] = Colchicine pharmacokinetics coadministered with fluconazole
# Description: (§1) The inhibitor dosage form was an oral 200 mg tablet of Diflucan® (fluconazole, from Pfizer).
# (§2) The fluconazole trial differed from the Example 2 protocol as follows.
# [2] = Incidence of adverse effects for colchicine coadministered with voriconazole
# Description: (§3) Safety was evaluated through assessment of adverse events, standard laboratory evaluations, physical examination (including vital signs) and ECG. Safety was determined by descriptive statistics.
# [3] = Description: as §3, §1, §2
# [4] = for AUCT/∞ / Kel / T1/2el: mean
# Remark: listed apart in the source
# [5] = not given; remark: listed apart in the source
# [6] = Treatment-1: colchicine 0.6 mg alone (day 1, fasted), clarithromycin study, cited from earlier work
# [7] = Treatment-1 (day 1): colchicine 0.6 mg alone, fasted, fluconazole study, mean
# [8] = Treatment-2 (day 9): colchicine 0.6 mg + fluconazole 200 mg after double dose day 4, once daily days 5-8, fasted, mean
# [9] = co-administration of fluconazole vs colchicine alone
# [10] = of 12 subjects, colchicine + voriconazole
# [11] = of 12 subjects, voriconazole study
# [12] = of 12 subjects, colchicine + fluconazole
# [13] = of 12 subjects, fluconazole study
# [14] = Treatment-1 (day 1): colchicine 0.6 mg alone, fasted, propafenone study
# [15] = Treatment-2 (day 9): colchicine 0.6 mg + propafenone 225 mg after twice daily days 4-8, fasted
# [16] = coadministration with propafenone vs colchicine alone
# [17] = of 12 subjects, cimetidine study
# [18] = of 12 subjects, colchicine + cimetidine
# [19] = of 12 subjects, colchicine + propafenone
# [20] = of 12 subjects, propafenone study
compound,measurement,setting,value
"COc1cc2c(c(OC)c1OC)-c1ccc(OC)c(=O)cc1[C@@H](NC(C)=O)CC2 [Colchicine, (S)N-(5,6,7,9-tetrahydro-1,2,3,10-tetramethoxy-9-oxobenzo[alpha]heptalen-7-yl)acetamide]",AUCT/∞,[1]; [7],85.33%
same,Kel,[1]; [7],0.0206 h⁻¹
same,T1/2el,[1]; [7],34.05 h
same,AUCT/∞,[1]; [8],83.54%
same,Kel,[1]; [8],0.0204 h⁻¹
same,T1/2el,[1]; [8],34.51 h
same,Increase of mean Cmax for colchicine,[1]; [9],13%
same,Increase of overall exposure of colchicine (AUC),[1]; [9],40%
same,CL/F,"[1]; male, human, in vivo, 0.6 mg",610 mL/min
same,Tmax,"[1]; male, human, in vivo, 0.6 mg",1.25 h
same,Vd/F,"[1]; male, human, in vivo, 0.6 mg",1810 L
same,AUC(0-t),"[1]; male, human, in vivo, 0.6 mg, AUCT GEOMETRIC LSMEANS, Treatment-1: colchicine 0.6 mg alone, fluconazole study",14.5 ng·h/mL
same,AUC(0-t),"[1]; male, human, in vivo, 0.6 mg, AUCT, Treatment-1 (day 1): colchicine 0.6 mg alone, fasted, fluconazole study, mean",14.9 ng·h/mL
same,AUC(0-inf),"[1]; male, human, in vivo, 0.6 mg, AUC∞ GEOMETRIC LSMEANS, Treatment-1: colchicine 0.6 mg alone, fluconazole study",17 ng·h/mL
same,AUC(0-inf),"[1]; male, human, in vivo, 0.6 mg, AUC∞, Treatment-1 (day 1): colchicine 0.6 mg alone, fasted, fluconazole study, mean",17.5 ng·h/mL
same,Cmax,"[1]; male, human, in vivo, 0.6 mg, Cmax GEOMETRIC LSMEANS, Treatment-1: colchicine 0.6 mg alone, fluconazole study",1.81 ng/mL
same,Cmax,"[1]; male, human, in vivo, 0.6 mg, Cmax, Treatment-1 (day 1): colchicine 0.6 mg alone, fasted, fluconazole study, mean",1.93 ng/mL
same,AUC(0-t),"[1]; male, human, in vivo, AUCT GEOMETRIC LSMEANS, Treatment-2: colchicine 0.6 mg + fluconazole",20.4 ng·h/mL
same,AUC(0-t),"[1]; male, human, in vivo, AUCT, Treatment-2 (day 9): colchicine 0.6 mg + fluconazole 200 mg after double dose day 4, once daily days 5-8, fasted, mean",21.3 ng·h/mL
same,AUC(0-inf),"[1]; male, human, in vivo, AUC∞ GEOMETRIC LSMEANS, Treatment-2: colchicine 0.6 mg + fluconazole",24.4 ng·h/mL
same,AUC(0-inf),"[1]; male, human, in vivo, AUC∞, Treatment-2 (day 9): colchicine 0.6 mg + fluconazole 200 mg after double dose day 4, once daily days 5-8, fasted, mean",25.6 ng·h/mL
same,Cmax,"[1]; male, human, in vivo, Cmax GEOMETRIC LSMEANS, Treatment-2: colchicine 0.6 mg + fluconazole",2.05 ng/mL
same,Cmax,"[1]; male, human, in vivo, Cmax, Treatment-2 (day 9): colchicine 0.6 mg + fluconazole 200 mg after double dose day 4, once daily days 5-8, fasted, mean",2.3 ng/mL
same,Total number of adverse events after Treatment-2,[2]; colchicine + voriconazole,2
same,Number of subjects experiencing adverse events after Treatment-2,[2]; [10],1
same,Percent of subjects experiencing adverse events after Treatment-2,[2]; [10],8.3%
same,Number of subjects experiencing adverse events after Treatment-1,[2]; [11],7
same,Percent of subjects experiencing adverse events after Treatment-1,[2]; [11],58.3%
same,Number of adverse events requiring medication after Treatment-1,[2]; voriconazole study,None
same,Number of serious adverse events or deaths,[2]; voriconazole study,None
same,Total number of adverse events after Treatment-1,[2]; voriconazole study,20
same,Total number of adverse events after Treatment-2,[3]; colchicine + fluconazole,3
same,Number of adverse events requiring medication after Treatment-1,[3]; fluconazole study,None
same,Number of serious adverse events or deaths,[3]; fluconazole study,None
same,Total number of adverse events after Treatment-1,[3]; fluconazole study,7
same,Number of subjects experiencing adverse events after Treatment-2,[3]; [12],3
same,Percent of subjects experiencing adverse events after Treatment-2,[3]; [12],25.0%
same,Number of subjects experiencing adverse events after Treatment-1,[3]; [13],3
same,Percent of subjects experiencing adverse events after Treatment-1,[3]; [13],25.0%
same,AUCT/∞,[4]; [14],88.21%
same,Kel,[4]; [14],0.0241 h⁻¹
same,T1/2el,[4]; [14],29.74 h
same,AUCT/∞,[4]; [15],89.16%
same,Kel,[4]; [15],0.0250 h⁻¹
same,T1/2el,[4]; [15],28.25 h
same,Tmax (median hours),"[4]; Treatment-2 (day 9): colchicine 0.6 mg + propafenone 225 mg after twice daily days 4-8, fasted, median",1.00 h
same,Increase of colchicine AUC,[4]; [16],1%
same,Increase of colchicine Cmax,[4]; [16],7%
same,Number of adverse events requiring medication after Treatment-1,cimetidine study,None
same,Number of serious adverse events or deaths,cimetidine study,None
same,Total number of adverse events after Treatment-1,cimetidine study,11
same,Total number of adverse events after Treatment-2,colchicine + cimetidine,2
same,Number of subjects experiencing adverse events after Treatment-1,[17],7
same,Percent of subjects experiencing adverse events after Treatment-1,[17],58.3%
same,Number of subjects experiencing adverse events after Treatment-2,[18],1
same,Percent of subjects experiencing adverse events after Treatment-2,[18],8.3%
same,Total number of adverse events after Treatment-2,[5]; colchicine + propafenone,1
same,Number of subjects experiencing adverse events after Treatment-2,[5]; [19],1
same,Percent of subjects experiencing adverse events after Treatment-2,[5]; [19],8.3%
same,Number of subjects experiencing adverse events after Treatment-1,[5]; [20],9
same,Percent of subjects experiencing adverse events after Treatment-1,[5]; [20],75.0%
same,Number of adverse events requiring medication after Treatment-1,[5]; propafenone study,None
same,Number of serious adverse events or deaths,[5]; propafenone study,None
same,Total number of adverse events after Treatment-1,[5]; propafenone study,19
same,Kel,[6]; arithmetic mean,0.1324 h⁻¹
same,T1/2el,[6]; arithmetic mean,8.89 h
same,CLTOT/F,[6],46.8 L/h
